Data published in PubChem BioAssay AID2305 (GlaxoSmithKline (GSK), 2010).

System: P. falciparum 3D7 growth, pLDH absorbance
Experiment: blood-stage malaria parasite growth potency – strain 3D7, dose response (AID 2305)

| Structure (SMILES) | IC50 [nM] |
| --- | --- |
| CC(C)CCN1C(=O)C(NC(=O)Oc2ccccc2)C(=O)N(CC23CC4CC(CC(C4)C2)C3)c2ccccc21 (configuration not stated) | 750 |
| N#Cc1ccc2c(c1)CCN(CCC1CCC(NC(=O)/C=C/c3cc(Br)cs3)CC1)CC2 (configuration not stated) | 1000 |
| Cc1cccc(-c2c(C)nc(N)nc2N)c1 | 1150 |
| COc1cc(SC)c(Br)cc1-c1nc2ccncc2[nH]1 | 1100 |
| CS(=O)(=O)CCNCc1nc(-c2ccc3c(Nc4ccc(F)c(O)c4)ccnc3c2)cs1 | 820 |
| CC1CN(Cc2ccccc2)CCN1c1ccc(NC(=O)c2cccs2)cc1 (configuration not stated) | 280 |
| Cc1cc(N[C@@H](Cc2ccccc2)C(=O)NCCc2ccccc2)nc(NCC2CCCCC2)n1 | 920 |
| COc1ccc(NC(=O)Nc2ccc(-c3ccc(-c4nc5ccccc5[nH]4)cc3)cc2)cc1 | 510 |
| COC(=O)c1noc(C)c1I | 800 |
| Cc1nc(N)nc(N)c1CCCOc1ccc(Br)cc1 | 490 |
| CCc1ccc(NC(=O)c2ccc(CN3CCCN(Cc4cccc(O)c4)CC3)cc2)cc1 | 670 |
| CN(C)C(=O)c1ccc(CN(Cc2ccc(OC(C)(C)C)cc2)Cc2ccc3c(c2)OCCO3)cc1 | 830 |
| O=C(NCCNc1ccnc(Nc2ccc(F)cc2)n1)c1cc2ccccc2s1 | 750 |
| CC(=O)Oc1c(C2CCN(CCCCNC(=O)c3ccc(-c4ccc(C#N)cc4)cc3)CC2)ccc2c1CCCC2 | 1130 |
| O=C(NCC(CCCN1CCC(c2c[nH]c3ccccc23)CC1)c1ccccc1)Nc1ccc(Cl)c(Cl)c1 (configuration not stated) | 790 |
| CCCCCCNC(=O)C1Cc2c([nH]c3cc(Cl)ccc23)C2(CCN(CCC)CC2)N1 (configuration not stated) | 880 |
| CN(C)CCCSc1ccccc1NC(=O)C=Cc1ccccc1 | 960 |
| COc1ccc(Cl)cc1N1CCN(CCCNC(=O)c2ccc(-c3nc4cc(Cl)c(C)cc4[nH]3)c(F)c2)CC1 | 180 |
| COc1cccc(C2C(C(=O)Nc3ccccc3)=C(C)N=c3s/c(=C\c4ccc(O)cc4)c(=O)n32)c1 (configuration not stated) | 580 |
| CC(=O)Nc1csc(-c2cnc(/C=C(\C)C[C@@H]3OC[C@H](C[C@@H]4O[C@H]4[C@@H](C)[C@H](C)O)[C@@H](O)[C@H]3O)o2)c1 | 180 |
| O=C(Nc1cccc(F)c1)N[C@H]1CCN(CCCCCNC(=O)[C@@H]2C[C@H]2c2ccc(Cl)c(Cl)c2)C1 | 990 |
| COC(=O)c1cccc(CNCc2ccc(-c3ccc(-c4nc5ccc(C(F)(F)F)cc5[nH]4)cc3)cc2)c1 | 300 |
| COc1ccc2cc(C(C)NC3CCN(c4cccc(NC(=O)c5ccncc5)c4)CC3)ccc2c1 (configuration not stated) | 1550 |
| COc1ccc(CNC2Cc3ccccc3C2)cc1-c1ccc(S(=O)(=O)NCCN2CCCC2)c(F)c1 | 720 |
| CCOC(=O)c1ccc(-c2cnc(N)c(-c3nc4c(C)cccc4[nH]3)c2)cc1 | 280 |

| Structure (SMILES) | IC50 [nM] |
| --- | --- |
| COc1cccc2c(NN=Cc3ccc([N+](=O)[O-])cc3)ccnc12 | 890 |
| O=C(NCCCCN1CCC(c2ccc3c(c2OCC2COCO2)CCCC3)CC1)c1ccc(-c2ccc(C(F)(F)F)cc2)cc1 (configuration not stated) | 870 |
| NC(N)=NCCCN(Cc1ccccc1)c1ccccc1 | 580 |
| COc1ccc(CN(C)CCCc2ccc(NC(=O)c3cc4ccccc4[nH]3)cc2)cc1OC | 730 |
| O=C(NCCc1ccccc1F)c1ccc(N2CCN(c3ccncc3)CC2)cn1 | 1080 |
| COc1ccc(-c2c3c(=O)n(C)c(=O)n(C)c3c3nnc4ccccc4n23)cc1 | 990 |
| O=c1cc(NCCCNCc2csc(Br)c2Sc2ccc(Cl)cc2)[nH]c2ccccc12 | 850 |
| O=C(Nc1cccc(CN2CCCN(Cc3ccccc3)CC2)c1)c1cc2ccccc2s1 | 1200 |
| O=c1c2ccc(F)cc2sn1-c1ccc(Cl)cc1 | 1150 |
| COc1ccc(CNc2nc(NCc3ccc(C(F)(F)F)cc3)c3cc(OC)c(OC)cc3n2)cc1OC | 210 |
| COc1ccc(CCNC(=O)c2cnc3c(c2)nc(-c2cnc(-c4ccccc4)[nH]2)n3CCc2cnc[nH]2)cc1 | 970 |
| CN(C)CCOc1ccc2[nH]c(-c3cccc(OCc4ccccc4)c3)nc2c1C#N | 260 |
| COc1ccc(CC(C)NCC(O)c2cccc(Br)c2)cc1 (configuration not stated) | 960 |
| CC(=O)Nc1nc(C(=O)Nc2ccc(-c3ccc(-c4nc5c(C)cccc5[nH]4)cc3)cc2)cs1 | 180 |
| C=CCOC(=O)N1CCC(CNCc2ccc(-c3cccc(-c4nc5ccc(F)cc5[nH]4)c3)cc2)C1 (configuration not stated) | 140 |
| COCc1nc(N)nc(N)c1-c1ccc(Cl)c(Cl)c1 | 1020 |
| CN=C(N)c1ccc(NC(=O)Nc2ccc(C(N)=NC)cc2)cc1 | 580 |
| COc1ccc2c(NN=Cc3cccnc3)cc(C)nc2c1 | 990 |
| Cc1ccc(Nc2nccc(Nc3ccc4c(c3)nc(Nc3cc(C(C)(C)C)on3)n4C)n2)cc1S(C)(=O)=O | 600 |
| O=C(CCc1cnc[nH]1)Nc1ccc(-c2ccc(-c3nc4ccccc4[nH]3)cc2)cc1 | 710 |
| CC(C)(C)c1ccc(NC(=O)c2ccc(CN3CCCN(Cc4cccc(F)c4)CC3)cc2)cc1 | 1120 |
| Cc1cccc2[nH]c(-c3cccc(-c4cccc(CNCc5cccc(N)c5)c4)c3)nc12 | 540 |
| CC(C)Oc1cccc(-c2ccc(C(=O)NCC3CCCN(Cc4cccc(C(F)(F)F)c4)C3)s2)c1 (configuration not stated) | 1080 |
| CS(=O)(=O)c1cccc2sc(N3CCN(C(=O)c4ccc([N+](=O)[O-])o4)CC3)nc12 | 1240 |
| COCCNCc1ncsc1-c1ccc2c(Nc3ccc(Oc4ccccc4)cc3)ccnc2c1 | 900 |

| Structure (SMILES) | IC50 [nM] |
| --- | --- |
| CC(C)NCc1ccc(-c2cccc(CN3CCC(c4ccccc4)CC3)c2)c(C(=O)NCC2CCCCC2)c1 | 850 |
| Fc1cccc(Nc2nc(NCc3ccc4ccsc4c3)nc(Nc3cccc(F)c3)n2)c1 | 1080 |
| Cc1nc2ccc3ccc(CNc4ccc5c(c4)CN([C@H](CCC(=O)O)C(=O)O)C5=O)cc3c2c(=O)[nH]1 | 860 |
| O=S(=O)(Nc1cccc(CCN2CCC(N3CCCCC3)CC2)c1)c1ccc2c(c1)OCCO2 | 1230 |
| O=C(/C=C/c1ccc(Cl)cc1)NCCCCCN1CCN(C(=O)Nc2ccc(Cl)c(C(F)(F)F)c2)CC1 | 920 |
| CC(C)Cc1nc(N2CCOCC2)c2nnn(Cc3ccccc3)c2n1 | 510 |
| CN1CCCc2ccc(NC(=O)c3ccc(-c4cc(C(F)(F)F)nn4C)s3)cc2C1 | 880 |
| Cc1ccc(CN2CCN(c3cc4c(cc3Cl)CCN4C(=O)Cc3ccc(NC(=O)c4ccc(C(F)(F)F)cc4)cc3)CC2)cc1 | 940 |
| CC(=O)C1=NN(c2ccc(C)cc2)C(c2cccs2)N1c1ccccc1 (configuration not stated) | 340 |
| COc1ccc(CN(C)CCCCc2ccc(NC(=O)COc3cccc4sc5ccccc5c(=O)c34)cc2)cc1OC | 810 |
| Cc1csc(-c2nc(NCCc3c(C)noc3C)ncc2-c2ccsc2)n1 | 180 |
| NC1CCCN(Cc2ccc(-c3cccc(-c4nc5ccccc5[nH]4)c3)cc2)C1 (configuration not stated) | 720 |
| CCCCCCNC(=O)C1Cc2c([nH]c3ccc(Br)cc23)C2(CCN(Cc3ccccc3)CC2)N1 (configuration not stated) | 720 |
| CCN(CC)C(=NCCCCCCN=C(NC(N)=NCc1cccc(Cl)c1)N(CC)CC)NC(N)=NCc1cccc(Cl)c1 | 210 |
| CCCCC(=O)Nc1cc(=O)[nH]c2nc(-c3ccc(Cl)cc3)nn12 | 710 |
| Cc1cc2c(cc1C(F)(F)F)N(C(=O)Nc1ccc(OCCN(C)C)c(C(F)(F)F)c1)CC2 | 910 |
| COc1cccc(C(=O)Nc2nonc2-c2ccc(OC)c(OC)c2)c1 | 800 |
| O=C(/C=C/c1ccc(Cl)c(Cl)c1)N1CCC(CN2CCC(c3c[nH]c4ncccc34)CC2)CC1 | 1090 |
| CN1CCN(CCCN(Cc2ccc(-c3cccc(CNCc4ccc5c(c4)OCO5)c3)cc2)C(=O)NC2CCCCC2)CC1 | 990 |
| OC(CNCCCCCCNCC(O)c1ccc(Cl)c(Cl)c1)c1ccc(Cl)c(Cl)c1 (configuration not stated) | 910 |
| Cc1ccc(O)c(CN2CCCC(COC(c3ccc(F)cc3)c3ccc(F)cc3)C2)c1 (configuration not stated) | 710 |
| Cc1ccc(O)c(C(=O)c2cc(C(=O)Nc3ccccc3C)c(=O)n(-c3ccccc3C)c2)c1 | 780 |
| O=c1[nH]c(NCCCNCc2cc3c(Cl)cc(Cl)cc3[nH]2)nc2ccccc12 | 990 |
| CC(Cl)=CCc1c(C)[nH]c2c(ccc3ccccc32)c1=O | 200 |
| Cc1cccc2[nH]c(-c3cccc(-c4cccc(NC(=O)NCc5ccccc5)c4)c3)nc12 | 520 |

| Structure (SMILES) | IC50 [nM] |
| --- | --- |
| COc1ccc(CNCc2ccc(-c3cccc(-c4nc5ccc(C(F)(F)F)cc5[nH]4)c3)cc2)cc1 | 150 |
| COC(=O)c1cccc(CNCc2ccc(-c3ccc(-c4nc5ccc(F)cc5[nH]4)cc3)cc2)c1 | 240 |
| Cc1nc2ccc(F)cc2n1C1CCN(C(=O)Cc2ccc(F)c(F)c2)CC1 | 1410 |
| CCC(C)c1ccc(NC(=O)Nc2ccc(Cn3ncc(N4CCCNCC4)c(Cl)c3=O)cc2)cc1 (configuration not stated) | 1030 |
| CSc1sc(NC(=O)Nc2cccc(C(F)(F)F)c2)cc1C#N | 910 |
| Cc1ccc(O)cc1Nc1ccnc2ccc(-c3cccc(CNCCN(C)C)c3)cc12 | 610 |
| O=C(Nc1cccc(-c2ccc(-c3nc4ccc(F)cc4[nH]3)cc2)c1)c1csnn1 | 280 |
| CNCCNCc1ccc(-c2ccc(-c3nc4ccc(F)cc4[nH]3)s2)cc1 | 770 |
| O=C(NC1c2ccccc2Oc2ccccc21)c1ccccc1O | 840 |
| COCCCNC(=O)[C@H]1CNCCN1C(=O)c1ccccc1 | 800 |
| CC(C)c1ccc(CN2CCC(CNC(=O)c3cc(-c4ccc(N(C)C)cc4)cs3)C2)cc1 (configuration not stated) | 1250 |
| COc1ccccc1CN1CCC(NC(=O)c2ccc(-c3cccc(C(F)(F)F)c3)s2)CC1 | 1310 |
| CC(C)c1ccc(CN2CCCCC(NC(=O)c3cc(-c4ccccc4F)cs3)C2)cc1 (configuration not stated) | 670 |
| N#Cc1ccnc(-c2ccc(CNC3CCN(CC4Cn5c(=O)ccc6ccc(F)c4c65)CC3)cc2)c1 (configuration not stated) | 1220 |
| CN(c1ccc2c(c1)nc(NC(=O)C1(c3cc(F)ccc3F)CC1)n2C)c1ccnc(Nc2cccc(CS(C)(=O)=O)c2)n1 | 1100 |
| NCC1CCCN1Cc1ccc(-c2cccc(-c3nc4ccc(C(F)(F)F)cc4[nH]3)c2)cc1 (configuration not stated) | 830 |
| Fc1ccc(-c2cc3ncnc(N4CCN(CCN5CCCC5)CC4)c3s2)cc1 | 740 |
| CCNc1cc(C(=O)N[C@@H](Cc2ccccc2)[C@H](O)CNCc2ccc3c(c2)OCCO3)cc(N2CCCCS2(=O)=O)c1 | 1350 |
| COc1cccc(COCC(O)CN(CCc2ccccn2)C(=O)c2ccccc2F)c1 (configuration not stated) | 820 |
| CC(C)(CNC(=O)C1CCN(CCOc2ccc(Cl)cc2)CC1)c1nc(-c2ccc(Cl)c(O)c2)c(-c2ccncc2)[nH]1 | 710 |
| O=[N+]([O-])c1ccccc1C=NNc1ccnc2ccc(C(F)(F)F)cc12 | 710 |
| Clc1ccc(CNc2ccnc(NCc3ccc4c(c3)OCCCO4)n2)c(Cl)c1 | 990 |
